From the supplement of paper PMC10307832

How the values were obtained:
Experiment in all cases: relative viability (nuclei count vs DMSO), 5 days (fraction); higher = more cells survive
[1] = compound: C1CN(CCN1)C2=CC=C(C=C2)C3=CN4C(=C(C=N4)C5=CC=NC6=CC=CC=C56)N=C3 [DM3189] + Cc1nc(Nc2ncc(C(=O)Nc3c(C)cccc3Cl)s2)cc(N2CCN(CCO)CC2)n1 [Dasatinib] (partner 0.075 µM)
How it was run: (§1)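 Nuclei were stained with Hoechst during a one-step fixation (final 0.05% Triton X-100, 1% formaldehyde, 1 ug/ml Hoechst) carried out 5 days after dosing, then counted on 4× images. The cells, lung cancer lines in 1536-well plates, had been dosed by pin tool the day after seeding with one drug alone or a fixed anchor-drug dose plus five library-drug doses (not always all listed) in √10 steps. Relative viability is the nuclei count in treated wells divided by that in vehicle wells, and each value is the median of duplicate plates.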

[2] = compound: C1CN(CCN1)C2=CC=C(C=C2)C3=CN4C(=C(C=N4)C5=CC=NC6=CC=CC=C56)N=C3 [DM3189] + Nc1ncn([C@H]2C[C@H](O)[C@@H](CO)O2)c(=O)n1 [Decitabine] (partner 2 µM)
How it was run: as §1

[3] = compound: C1CN(CCN1)C2=CC=C(C=C2)C3=CN4C(=C(C=N4)C5=CC=NC6=CC=CC=C56)N=C3 [DM3189] + Cc1cc(Nc2cc(N3CCN(C)CC3)nc(Sc3ccc(NC(=O)C4CC4)cc3)n2)n[nH]1 [Tozasertib] (partner 0.1 µM)
How it was run: as §1

[4] = compound: C1CN(CCN1)C2=CC=C(C=C2)C3=CN4C(=C(C=N4)C5=CC=NC6=CC=CC=C56)N=C3 [DM3189] + CC1(C)CCC(c2ccc(Cl)cc2)=C(CN2CCN(c3ccc(C(=O)NS(=O)(=O)c4ccc(N[C@H](CCN5CCOCC5)CSc5ccccc5)c(S(=O)(=O)C(F)(F)F)c4)cc3)CC2)C1 [Navitoclax] (partner 0.5 µM)
How it was run: as §1

[5] = compound: C1CN(CCN1)C2=CC=C(C=C2)C3=CN4C(=C(C=N4)C5=CC=NC6=CC=CC=C56)N=C3 [DM3189] + COc1cc2c(Oc3ccc(NC(=O)C4(C(=O)Nc5ccc(F)cc5)CC4)cc3F)ccnc2cc1OCCCN1CCOCC1 [Foretinib] (partner 0.25 µM)
How it was run: as §1

Cell Line	relative viability ([1]; first compound 0.08 µM)	relative viability ([1]; first compound 0.253 µM)	relative viability ([1]; first compound 2.53 µM)	relative viability ([2]; first compound 0.08 µM)	relative viability ([2]; first compound 0.253 µM)	relative viability ([2]; first compound 2.53 µM)	relative viability ([3]; first compound 0.08 µM)	relative viability ([3]; first compound 0.253 µM)	relative viability ([3]; first compound 2.53 µM)	relative viability ([4]; first compound 0.08 µM)	relative viability ([4]; first compound 0.253 µM)	relative viability ([4]; first compound 2.53 µM)	relative viability ([5]; first compound 0.08 µM)	relative viability ([5]; first compound 0.253 µM)	relative viability ([5]; first compound 2.53 µM)	relative viability ([1]; first compound 0.8 µM)	relative viability ([2]; first compound 0.8 µM)	relative viability ([3]; first compound 0.8 µM)	relative viability ([4]; first compound 0.8 µM)	relative viability ([5]; first compound 0.8 µM)
LU99A	0.748	0.565	0.595	1.09	0.837	0.777	0.284	0.242	0.307	0.828	0.787	0.83	0.82	0.731	0.661					
LXF-289	0.264	0.197	0.223	0.391	0.389	0.421	0.208	0.196	0.236	0.983	0.927	1.07	0.982	0.963	1.02	0.189	0.438	0.166	0.932	0.987
NCI-H23	0.878	0.713	0.749	0.308	0.304	0.314	0.291	0.389	0.376	0.917	0.794	0.741	1.01	0.861	0.982	0.716	0.284	0.296	0.742	0.882
NCI-H322M	0.268	0.251	0.218	0.628	0.683	0.696	0.481	0.427	0.404	1.33	1.25	1.52	0.942	0.944	0.774	0.235	0.767	0.448	1.28	0.886
NCI-H441	0.69	0.581	0.513	0.307	0.227	0.219	0.943	0.57	0.738	0.567	0.431	0.62	1.01	0.726	0.702	0.625	0.216	0.681	0.615	1.24
NCI-H460	0.728	0.532	0.666	0.449	0.468	0.555	0.384	0.393	0.277	1.2	1.18	0.904	0.951	1.03	1.34	0.47	0.438	0.12	0.996	0.995
NCI-H520	0.24	0.219	0.197	0.534	0.399	0.336	0.491	0.33	0.313	1	0.728	0.628	0.713	0.554	0.631	0.258	0.521	0.364	0.752	0.62
NCI-H596	0.747	0.71	0.609	1.09	1.09	1.19	0.826	0.869	0.92	1.01	1.09	1.06	1.12	0.955	1.06	0.497	0.842	0.937	0.917	0.695
NCI-H647	0.264	0.193	0.157	0.365	0.43	0.403	0.259	0.212	0.235	1.26	0.959	0.657	1.06	1.13	1.01	0.215	0.418	0.408	0.767	1.08
NCI-H727	0.364	0.336	0.299	0.886	0.769	0.976	0.648	0.568	0.578	0.461	0.373	0.511	0.792	0.821	0.818		0.846	0.654		0.668
NCI-H838	0.346	0.303	0.274	0.446	0.458	0.525	0.256	0.249	0.281	1.15	1.09	1.23	0.951	0.891	0.895	0.261	0.431	0.255	0.904	0.689
NCI-H1355	0.788	0.706	0.633	0.337	0.39	0.37	0.547	0.55	0.438	0.926	0.953	0.951	0.987	0.968	0.979	0.474	0.345	0.513	0.819	0.91
NCI-H1395	0.461	0.39	0.415	0.663	0.703	0.712	0.69	0.689	0.799	1.22	0.958	1.17	0.896	0.929	1.03	0.397		0.697	0.74	0.831
NCI-H1437	0.434	0.395	0.385	0.6	0.542	0.571	0.396	0.369	0.397	0.994	1.1	1.05	1.29	1.33	1.33	0.384	0.554	0.379	1.06	1.33
NCI-H1650	0.333	0.391	0.316	0.367	0.462	0.425	0.322	0.362	0.377	1.24	1.11	1.13	1.04	1.18	1.12	0.304	0.366	0.389	1.21	1.21
NCI-H1651	0.386	0.571	0.462	0.703	0.646	0.67	0.704	0.722	0.649	1.17	1.13	0.928	0.83	0.716	0.827	0.58	0.626	0.628	1.13	0.831

Cell Line	relative viability ([1]; first compound 0.08 µM)	relative viability ([1]; first compound 0.253 µM)	relative viability ([1]; first compound 2.53 µM)	relative viability ([2]; first compound 0.08 µM)	relative viability ([2]; first compound 0.253 µM)	relative viability ([2]; first compound 2.53 µM)	relative viability ([3]; first compound 0.08 µM)	relative viability ([3]; first compound 0.253 µM)	relative viability ([3]; first compound 2.53 µM)	relative viability ([4]; first compound 0.08 µM)	relative viability ([4]; first compound 0.253 µM)	relative viability ([4]; first compound 2.53 µM)	relative viability ([5]; first compound 0.08 µM)	relative viability ([5]; first compound 0.253 µM)	relative viability ([5]; first compound 2.53 µM)	relative viability ([1]; first compound 0.8 µM)	relative viability ([2]; first compound 0.8 µM)	relative viability ([3]; first compound 0.8 µM)	relative viability ([4]; first compound 0.8 µM)	relative viability ([5]; first compound 0.8 µM)
NCI-H1666	0.884	0.862	0.715	0.882	0.688	0.83	0.602	0.648	0.565	1.11	1.09	1.17	1.02	0.97	0.93	0.925	0.748	0.737	0.895	1.02
NCI-H1734	0.476	0.46	0.414	0.528	0.506	0.524	0.28	0.266	0.22	0.903	0.81	0.844	0.888	0.829	0.823	0.499	0.49	0.228	0.774	0.756
NCI-H1755	0.429	0.401	0.411	0.739	0.694	0.671	0.475	0.493	0.524	0.926	0.904	0.965	0.914	0.855	0.826	0.388	0.729	0.453	0.701	0.718
NCI-H1793	0.423	0.368	0.361	0.55	0.458	0.541	0.33	0.321	0.357	0.422	0.396	0.478	0.768	0.847	0.783	0.371	0.461	0.294	0.421	0.905
NCI-H1915	0.46	0.317	0.286	0.261	0.253	0.257	0.455	0.431	0.404	0.772	0.777	0.857	1.09	1.07	1.03	0.289	0.257	0.402	0.729	0.875
NCI-H1944	0.232	0.217	0.219	0.42	0.467	0.455	0.275	0.273	0.267	1.07	1.03	1.15	0.93	0.81	0.88		0.384			
NCI-H1975	0.421	0.357	0.332	0.374	0.41	0.336	0.652	0.693	0.541	1.16	1.08	0.821	1.02	0.871	0.782	0.314	0.361	0.649	0.858	0.898
NCI-H1993	0.657	0.552	0.504	0.579	0.654	0.499	0.58	0.584	0.637		0.883	0.999	0.766	0.744	0.907	0.505	0.571	0.554	0.646	0.672
NCI-H2009	0.287	0.267	0.244	0.416	0.354	0.417	0.678	0.69	0.673	1.17	1.19	1.23	1.22	1.16	1.25	0.263	0.412	0.67	1.06	1.14
NCI-H2023	0.781	0.595	0.46	0.229	0.225	0.201	0.442	0.304	0.266	0.992	1.04	0.842	0.938	0.867	0.552	0.363	0.205	0.259	0.909	0.857
NCI-H2085	0.28	0.274	0.28	0.504	0.565	0.591	0.903	0.747	0.951	1.2	1.16	1.11	0.982	1.02	1.01	0.318	0.564	0.898	1.19	0.925
NCI-H2087	0.97	0.77	0.768	0.269	0.249	0.275	0.248	0.277	0.162	1.09	0.933	1.08	1.28	1.18	0.969	0.784	0.284	0.264	1.04	1.07
NCI-H2126	0.742	0.568	0.503	0.558	0.547	0.61	0.823	0.767	0.803	0.827	0.873	0.861	1.14	1.11	1.16	0.446	0.53	0.739	0.756	1.18
NCI-H2170	0.718	0.466	0.515	0.494	0.484	0.44	0.84	0.651	0.71	0.637	0.541	0.711	0.985	1.01	1.16	0.591	0.466	0.525	0.541	0.883
NCI-H2347	0.261	0.384	0.284	0.591	0.622	0.668	0.464	0.475	0.515	0.861	0.819	0.763	1.24	1.29	0.843	0.341	0.576	0.521	0.743	0.957
